Experimental data taken from the NIST ThermoML archive (doi:10.1016/j.jct.2011.02.018).
Numbers after ± are expanded uncertainties.

Test: xn = mol fraction of the nth substance listed
Details: 101 kPa, Liquid; for viscosity: Concentric cylinders viscometry; for mass density: Vibrating tube method

COC(C)(C)C [2-methoxy-2-methylpropane] + CCCCCO
Details | mass density, 293.15 K [kg/m3] | mass density, 298.15 K [kg/m3] | mass density, 303.15 K [kg/m3] | mass density, 308.15 K [kg/m3] | viscosity, 293.15 K [mPa·s] | viscosity, 298.15 K [mPa·s] | viscosity, 303.15 K [mPa·s] | viscosity, 308.15 K [mPa·s]
x1 = 0.0105 | 813.89 ± 0.29 | 810.25 ± 0.29 | 806.55 ± 0.29 | 802.82 ± 0.29 | 3.895 ± 0.16 | 3.372 ± 0.14 | 2.932 ± 0.12 | 2.562 ± 0.1
x1 = 0.0197 | 813.34 ± 0.29 | 809.68 ± 0.29 | 805.95 ± 0.29 | 802.2 ± 0.29 | 3.775 ± 0.15 | 3.273 ± 0.13 | 2.852 ± 0.12 | 2.493 ± 0.1
x1 = 0.0321 | 812.56 ± 0.29 | 808.89 ± 0.29 | 805.15 ± 0.29 | 801.39 ± 0.29 | 3.615 ± 0.15 | 3.143 ± 0.13 | 2.743 ± 0.11 | 2.406 ± 0.099
x1 = 0.0401 | 812.06 ± 0.29 | 808.37 ± 0.29 | 804.63 ± 0.29 | 800.86 ± 0.29 | 3.516 ± 0.14 | 3.059 ± 0.13 | 2.675 ± 0.11 | 2.344 ± 0.096
x1 = 0.0506 | 811.39 ± 0.29 | 807.69 ± 0.29 | 803.93 ± 0.29 | 800.15 ± 0.29 | 3.394 ± 0.14 | 2.958 ± 0.12 | 2.588 ± 0.11 | 2.274 ± 0.093
x1 = 0.0595 | 810.83 ± 0.29 | 807.12 ± 0.29 | 803.35 ± 0.29 | 799.56 ± 0.29 | 3.292 ± 0.14 | 2.872 ± 0.12 | 2.517 ± 0.1 | 2.214 ± 0.091
x1 = 0.0699 | 810.18 ± 0.29 | 806.45 ± 0.29 | 802.67 ± 0.29 | 798.87 ± 0.29 | 3.176 ± 0.13 | 2.778 ± 0.11 | 2.438 ± 0.1 | 2.149 ± 0.088
x1 = 0.0811 | 809.49 ± 0.28 | 805.73 ± 0.28 | 801.94 ± 0.29 | 798.11 ± 0.29 | 3.061 ± 0.13 | 2.683 ± 0.11 | 2.357 ± 0.097 | 2.079 ± 0.085
x1 = 0.0901 | 808.93 ± 0.28 | 805.14 ± 0.28 | 801.33 ± 0.28 | 797.5 ± 0.28 | 2.97 ± 0.12 | 2.606 ± 0.11 | 2.294 ± 0.094 | 2.028 ± 0.083
x1 = 0.1042 | 808.03 ± 0.28 | 804.23 ± 0.28 | 800.41 ± 0.28 | 796.55 ± 0.28 | 2.841 ± 0.12 | 2.495 ± 0.1 | 2.214 ± 0.091 | 1.949 ± 0.08
x1 = 0.1506 | 805.02 ± 0.28 | 801.2 ± 0.28 | 797.3 ± 0.28 | 793.39 ± 0.28 | 2.45 ± 0.1 | 2.168 ± 0.089 | 1.927 ± 0.079 | 1.716 ± 0.07
x1 = 0.2078 | 801.27 ± 0.27 | 797.36 ± 0.27 | 793.4 ± 0.27 | 789.41 ± 0.27 | 2.058 ± 0.084 | 1.837 ± 0.075 | 1.648 ± 0.067 | 1.473 ± 0.06
x1 = 0.252 | 798.32 ± 0.27 | 794.34 ± 0.27 | 790.33 ± 0.27 | 786.28 ± 0.27 | 1.809 ± 0.074 | 1.619 ± 0.066 | 1.457 ± 0.06 | 1.312 ± 0.054
x1 = 0.301 | 795.01 ± 0.26 | 790.96 ± 0.26 | 786.88 ± 0.26 | 782.75 ± 0.26 | 1.574 ± 0.064 | 1.418 ± 0.058 | 1.281 ± 0.052 | 1.159 ± 0.047
x1 = 0.3492 | 791.65 ± 0.26 | 787.57 ± 0.26 | 783.41 ± 0.26 | 779.21 ± 0.26 | 1.387 ± 0.057 | 1.254 ± 0.051 | 1.135 ± 0.046 | 1.033 ± 0.042
x1 = 0.3996 | 788.14 ± 0.26 | 783.99 ± 0.26 | 779.75 ± 0.26 | 775.48 ± 0.26 | 1.207 ± 0.049 | 1.098 ± 0.045 | 1 ± 0.041 | 0.9139 ± 0.037
x1 = 0.4577 | 784 ± 0.25 | 779.75 ± 0.25 | 775.42 ± 0.25 | 771.06 ± 0.25 | 1.042 ± 0.043 | 0.953 ± 0.039 | 0.8735 ± 0.036 | 0.8008 ± 0.033
x1 = 0.4985 | 781.06 ± 0.25 | 776.76 ± 0.25 | 772.36 ± 0.25 | 767.93 ± 0.25 | 0.9442 ± 0.039 | 0.8668 ± 0.036 | 0.7962 ± 0.033 | 0.7313 ± 0.03
x1 = 0.5512 | 777.21 ± 0.25 | 772.8 ± 0.25 | 768.33 ± 0.25 | 763.81 ± 0.25 | 0.8364 ± 0.034 | 0.7702 ± 0.032 | 0.7102 ± 0.029 | 0.6515 ± 0.027
x1 = 0.5999 | 773.61 ± 0.25 | 769.09 ± 0.25 | 764.55 ± 0.25 | 759.95 ± 0.25 | 0.7504 ± 0.031 | 0.6941 ± 0.029 | 0.6401 ± 0.026 | 0.5895 ± 0.024
x1 = 0.6506 | 769.72 ± 0.24 | 765.16 ± 0.25 | 760.51 ± 0.25 | 755.83 ± 0.25 | 0.6719 ± 0.028 | 0.6222 ± 0.026 | 0.5765 ± 0.024 | 0.5309 ± 0.022
x1 = 0.6986 | 766.04 ± 0.24 | 761.39 ± 0.24 | 756.67 ± 0.24 | 751.9 ± 0.25 | 0.606 ± 0.025 | 0.5627 ± 0.023 | 0.5215 ± 0.022 | 0.4812 ± 0.02
x1 = 0.7451 | 762.49 ± 0.24 | 757.72 ± 0.24 | 752.92 ± 0.24 | 748.06 ± 0.24 | 0.5517 ± 0.023 | 0.5167 ± 0.021 | 0.4765 ± 0.02 | 0.4421 ± 0.018
x1 = 0.7976 | 758.12 ± 0.24 | 753.3 ± 0.24 | 748.39 ± 0.24 | 743.42 ± 0.24 | 0.4971 ± 0.021 | 0.4653 ± 0.019 | 0.4332 ± 0.018 | 0.4011 ± 0.017
x1 = 0.8534 | 753.55 ± 0.24 | 748.61 ± 0.24 | 743.59 ± 0.24 | 738.51 ± 0.24 | 0.4455 ± 0.019 | 0.4172 ± 0.017 | 0.3868 ± 0.016 | 0.3584 ± 0.015
x1 = 0.898 | 749.74 ± 0.24 | 744.73 ± 0.24 | 739.63 ± 0.24 | 734.47 ± 0.24 | 0.4101 ± 0.017 | 0.3855 ± 0.016 | 0.3594 ± 0.015 | 0.3315 ± 0.014
x1 = 0.9098 | 748.75 ± 0.24 | 743.7 ± 0.24 | 738.59 ± 0.24 | 733.41 ± 0.24 | 0.4017 ± 0.017 | 0.3772 ± 0.016 | 0.3526 ± 0.015 | 0.3257 ± 0.014
x1 = 0.9195 | 747.92 ± 0.24 | 742.85 ± 0.24 | 737.72 ± 0.24 | 732.53 ± 0.24 | 0.3954 ± 0.017 | 0.3701 ± 0.016 | 0.3467 ± 0.015 | 0.3192 ± 0.014
x1 = 0.9289 | 747.1 ± 0.24 | 742.01 ± 0.24 | 736.85 ± 0.24 | 731.64 ± 0.24 | 0.388 ± 0.016 | 0.3658 ± 0.015 | 0.3396 ± 0.014 | 0.3137 ± 0.013
x1 = 0.9419 | 745.96 ± 0.24 | 740.85 ± 0.24 | 735.67 ± 0.24 | 730.43 ± 0.24 | 0.3807 ± 0.016 | 0.3564 ± 0.015 | 0.3307 ± 0.014 | 0.3102 ± 0.013
x1 = 0.9495 | 745.29 ± 0.24 | 740.17 ± 0.24 | 734.96 ± 0.24 | 729.72 ± 0.24 | 0.3752 ± 0.016 | 0.354 ± 0.015 | 0.3276 ± 0.014 | 0.3054 ± 0.013
x1 = 0.9594 | 744.4 ± 0.24 | 739.28 ± 0.24 | 734.04 ± 0.24 | 728.78 ± 0.24 | 0.3682 ± 0.015 | 0.3458 ± 0.015 | 0.3227 ± 0.014 | 0.3007 ± 0.013
x1 = 0.9688 | 743.56 ± 0.24 | 738.42 ± 0.24 | 733.17 ± 0.24 | 727.88 ± 0.24 | 0.3623 ± 0.015 | 0.3405 ± 0.014 | 0.317 ± 0.013 | 0.2966 ± 0.013
x1 = 0.9792 | 742.63 ± 0.24 | 737.46 ± 0.24 | 732.2 ± 0.24 | 726.89 ± 0.24 | 0.3563 ± 0.015 | 0.3352 ± 0.014 | 0.3104 ± 0.013 | 0.2916 ± 0.013
x1 = 0.9902 | 741.63 ± 0.24 | 736.44 ± 0.24 | 731.16 ± 0.24 | 725.83 ± 0.24 | 0.3533 ± 0.015 | 0.3291 ± 0.014 | 0.3035 ± 0.013 | 0.2863 ± 0.012
